The text below walks through data of patent EP4061322B1 (Institut des Sciences et Industries du Vivant et de …, priority 2019, dated 2021).

Data set [1] can be described thus: UV-Vis absorption spectrum (anti-UVA and blue light properties). The class given is physicochemical. Further details: λmax: unit not given here. As to conditions: Tableau 1. The source says: Un spectre UV-Vis a été réalisé dans l'éthanol à 10^-5 mol/L pour les composés 1 à 7, qui sont des dérivés furaniques de l'acide de Medrum. L'Avobenzone, une molécule très largement utilisée comme filtre UVA dans les crèmes solaires, a été utilisée en tant que référence.
Cette méthodologie a été employée pour évaluer les propriétés anti-UV des composés 8 à 11, qui sont des dérivés phénoliques de l'acide de Medrum, des composés 12 à 15 qui sont des dérivés pyrroliques de l'acide de Meldrum, des composés 16 à 18 qui sont des dérivés vinylphénol de l'acide de Meldrum, le composé 19 qui est un dérivé vinylfurane de l'acide de Meldrum.

A short description of data set [2]: Photostability under UV exposure. The class given is physicochemical. As to conditions: Tableau 1; for Perte d'activité (%): UV exposure λ 300 nm, P 8.32 W/m^2, one hour. The text has this: La stabilité des composés 1 à 7 aux UV a été étudiée par soumission à une exposition (λ : 300 nm, P : 8.32 W/m^2) pendant une heure.
L'Avobenzone a été utilisée comme molécule de référence. Cette molécule est connue pour être […] sous exposition UV, ce qui n'est pas du tout le cas d'autres composés bio-sourcés.
La photostabilité des composés 8 à 11 a également été étudiée, de manière identique au test appliqué aux composés 1 à 7. Les résultats obtenus sont présentés dans le Tableau 2. […] Cette méthodologie a été appliquée à l'ensemble des molécules décrites ci-dessus. Tableau 2 : Stabilité des composés 8 à 11 soumis à une exposition aux UV.

Data set [3] addresses T1, AR (récepteur des androgènes) (Homo sapiens, UniProt P10275).
T1 sequence (P10275 1-920): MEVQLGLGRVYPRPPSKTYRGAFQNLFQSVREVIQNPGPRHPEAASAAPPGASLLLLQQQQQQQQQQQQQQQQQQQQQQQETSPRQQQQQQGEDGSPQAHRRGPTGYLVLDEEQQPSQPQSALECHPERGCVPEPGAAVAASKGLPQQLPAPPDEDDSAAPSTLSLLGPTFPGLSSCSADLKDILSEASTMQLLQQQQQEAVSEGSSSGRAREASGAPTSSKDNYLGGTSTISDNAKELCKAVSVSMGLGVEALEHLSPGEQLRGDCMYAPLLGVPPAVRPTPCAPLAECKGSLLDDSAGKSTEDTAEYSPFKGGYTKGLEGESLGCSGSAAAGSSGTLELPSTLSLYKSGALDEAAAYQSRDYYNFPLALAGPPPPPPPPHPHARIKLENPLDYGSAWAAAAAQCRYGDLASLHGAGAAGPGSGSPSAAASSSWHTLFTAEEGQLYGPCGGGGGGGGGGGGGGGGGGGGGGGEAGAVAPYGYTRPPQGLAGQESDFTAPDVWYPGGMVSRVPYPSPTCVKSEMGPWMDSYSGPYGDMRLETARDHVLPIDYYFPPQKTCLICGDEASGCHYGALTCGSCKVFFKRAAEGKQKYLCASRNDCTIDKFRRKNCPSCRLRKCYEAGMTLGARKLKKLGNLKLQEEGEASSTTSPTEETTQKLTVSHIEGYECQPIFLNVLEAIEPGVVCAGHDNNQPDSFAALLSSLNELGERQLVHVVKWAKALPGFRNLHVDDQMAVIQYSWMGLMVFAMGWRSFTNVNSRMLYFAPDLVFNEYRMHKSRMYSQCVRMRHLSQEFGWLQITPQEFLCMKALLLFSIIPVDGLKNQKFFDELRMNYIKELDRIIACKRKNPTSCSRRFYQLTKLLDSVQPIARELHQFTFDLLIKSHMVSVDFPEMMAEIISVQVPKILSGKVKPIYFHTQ
The experiment in a line: Endocrine system: receptor activity in presence of compound (agonist effect). As to conditions: Figure 6, C = 10 µM; even at the highest concentrations. It counts as cell-based. The text has this: (§1) L'effet des composés 1 et 4 sur le système endocrinien a été évalué pour leurs propriétés agonistes et antagonistes sur différents récepteurs : ERα (récepteur œstrogène alpha), AR (récepteur des androgènes) et PXR (pregnane X receptor). Un premier test consiste à étudier l'activité des récepteurs en présence du composé 1 ou 4 (effet agoniste). […] Un second test vise à l'étude de l'activité des récepteurs en présence du composé 1 ou 4 et d'une molécule de référence pour chaque récepteur (effet antagoniste).

For data set [4], the target named is T2, ERα (récepteur œstrogène alpha) (Homo sapiens, UniProt P03372).
T2 sequence (P03372 1-595): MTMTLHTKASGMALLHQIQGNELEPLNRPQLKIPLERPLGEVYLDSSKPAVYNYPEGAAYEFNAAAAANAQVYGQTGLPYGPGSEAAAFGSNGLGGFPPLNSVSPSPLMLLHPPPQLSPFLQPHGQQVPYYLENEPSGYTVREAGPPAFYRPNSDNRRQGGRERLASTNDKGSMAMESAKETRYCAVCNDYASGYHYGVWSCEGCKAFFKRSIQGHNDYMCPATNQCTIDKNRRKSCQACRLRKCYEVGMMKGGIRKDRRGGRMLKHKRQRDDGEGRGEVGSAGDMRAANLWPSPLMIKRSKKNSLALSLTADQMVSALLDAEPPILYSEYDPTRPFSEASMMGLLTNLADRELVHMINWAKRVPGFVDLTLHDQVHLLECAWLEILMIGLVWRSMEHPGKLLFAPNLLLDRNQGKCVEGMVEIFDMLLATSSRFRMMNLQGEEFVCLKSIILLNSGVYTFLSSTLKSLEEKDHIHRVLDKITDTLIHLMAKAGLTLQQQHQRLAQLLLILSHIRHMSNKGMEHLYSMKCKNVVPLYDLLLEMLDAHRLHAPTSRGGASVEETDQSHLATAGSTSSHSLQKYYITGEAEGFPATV
The data set is described as above. The class given is cell-based. As to conditions: Figure 6, C = 10 µM; even at the highest concentrations.
Source text: as §1

The target in data set [5] is T3, PXR (pregnane X receptor) (Homo sapiens, UniProt O75469).
T3 sequence (O75469 1-434): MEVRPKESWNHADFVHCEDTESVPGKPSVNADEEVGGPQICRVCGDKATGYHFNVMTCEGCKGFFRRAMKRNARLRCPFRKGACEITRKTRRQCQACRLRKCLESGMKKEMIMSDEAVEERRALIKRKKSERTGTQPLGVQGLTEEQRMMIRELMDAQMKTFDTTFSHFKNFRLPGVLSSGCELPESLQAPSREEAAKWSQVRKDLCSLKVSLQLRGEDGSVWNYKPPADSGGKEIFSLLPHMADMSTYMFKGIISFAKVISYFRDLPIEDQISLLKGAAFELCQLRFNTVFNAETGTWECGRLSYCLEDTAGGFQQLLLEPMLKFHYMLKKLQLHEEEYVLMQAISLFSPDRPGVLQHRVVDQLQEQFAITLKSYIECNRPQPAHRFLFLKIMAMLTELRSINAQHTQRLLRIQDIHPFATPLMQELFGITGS
Described as above. The class given is cell-based. As to conditions: Figure 6, C = 10 µM; even at the highest concentrations.
Source text: as §1

In data set [6] the target is T1, AR (récepteur des androgènes). As to the kind of experiment: Endocrine system: receptor activity in presence of compound and reference molecule (antagonist effect). It counts as cell-based. As to conditions: Figure 8; with reference molecule; even at the highest concentrations.
Source text: as §1

Data set [7] concerns the target T2, ERα (récepteur œstrogène alpha). The description is as above. The class given is cell-based. As to conditions: Figure 7; with reference molecule; even at the highest concentrations.
Source text: as §1

Data set [8] concerns the target T3, PXR (pregnane X receptor). Described as above. The class given is cell-based. As to conditions: Figure 9; with reference molecule; even at the highest concentrations.
Source text: as §1

As to `CC1(C)OC(=O)C(=Cc2ccc(CO)o2)C(=O)O1` [compound 4, 5-[[5-(Hydroxymethyl)-2-furanyl]methylene]-2,2-dimethyl-1,3-dioxane-4,6-dione], in data set [1], the λmax is reported as 374. The entries for the “Perte d'activité (%)” value in data set [2] and in data set [2] (listed as Composé (4)) were less than 5% and 3,4%, respectively. The “A (t=0 min)” value in data set [2] (absorbance before UV exposure) is listed as 0,28814. For the same molecule, the “effet agoniste (activité du récepteur AR)” value in data set [3] was “n'induisent pas une activité anormale des récepteurs”. Also, in data set [4], the “effet agoniste (activité du récepteur ERα)” value is reported as “n'induisent pas une activité anormale des récepteurs”. Moreover, in data set [5], the “effet agoniste (activité du récepteur PXR)” value is given as “n'induisent pas une activité anormale des récepteurs”. Moreover, the “effet antagoniste sur le récepteur AR” value in data set [6] was “n'empêchent pas l'activité des récepteurs envers les molécules de référence”. In addition, the “effet antagoniste sur le récepteur ERα” value in data set [7] was “n'empêchent pas l'activité des récepteurs envers les molécules de référence”. In data set [8], the “effet antagoniste sur le récepteur PXR” value is reported as “n'empêchent pas l'activité des récepteurs envers les molécules de référence”.
